For four molecules, IC50 results are on record in patent US8314142B2, “Dimers of artemisinin derivatives, preparation thereof and therapeutic use thereof” (Sanofi, priority 2006, dated 2012).

The test system of this assay is HCT116 cells. The assay can be described thus: Inhibition of cell proliferation of HCT116 cells (14C-thymidine incorporation, 96 hours). The format is cell-based. Particulars: Homo sapiens, HCT-116, 14C-thymidine incorporation after 96 hours. How it is done: The products according to the invention have been the subject of pharmacological trials which make it possible to determine their antiproliferative activity. It was determined by measuring the inhibition of cell proliferation of HCT116 cells. The cells are inoculated in a cell culture medium at a concentration of 10 000 cells per well, in 0.17 ml of medium, and 20 μl of test product, at various concentrations, and 10 μl of Thymidine [methyl-14C] (100 μCi/ml—specific activity 47.90 mCi/mmol; NEN Technologies reference NEC568 batch 3550-001) are added, and then the cells are incubated at 37° C. and 5% CO2.
Medium used for the culture of HCT116 cells: DMEM medium 2 mM L-glutamine, 200 IU/ml penicillin, 200 μg/ml streptomycin and 10% (V/V) fetal calf serum (Life Technologies).
After 96 hours, the incorporation of ^14C-thymidine is counted in a liquid scintillation counter 1450 Microbeta Wallac Trilux. The results R are expressed in cpm (counts per minute) and converted to percentage of growth inhibition GI % by first subtracting the mean of the number of cpm of the wells without cells B and then by dividing by the number of cpm of the wells of the untreated cells C comprising 20 μl of medium for dilution of the product containing 1% of ethanol (GI %=(R−B)×100/C %).
The IC50 values are calculated with the aid of the equation 205 of the XLFit software (IDBS company, UK) by nonlinear regression analysis using the Marquardt algorithm (Donald W. MARQUARDT, J. Soc. industry appl., vol. 11, No. 2, June, 1963).
Background: Uptake of a labelled nucleoside into DNA is a usual measure of proliferation.
One may read the IC50 as the point on the concentration scale where inhibition reaches its midpoint. Low values mean inhibition by little substance, high ones a need for much substance. In turn, `C[C@@H]1CC[C@H]2[C@@H](C)[C@](OCCSCCO[C@@]3(C(F)(F)F)O[C@@H]4O[C@]5(C)CC[C@H]6[C@H](C)CC[C@@H]([C@H]3C)[C@@]46OO5)(C(F)(F)F)O[C@@H]3O[C@@]4(C)CC[C@@H]1[C@]32OO4` [EX1] gave an IC50 of 47 nM.

For the molecule `C[C@@H]1CC[C@H]2[C@@H](C)[C@](OCC[S+]([O-])CCO[C@@]3(C(F)(F)F)O[C@@H]4O[C@]5(C)CC[C@H]6[C@H](C)CC[C@@H]([C@H]3C)[C@@]46OO5)(C(F)(F)F)O[C@@H]3O[C@@]4(C)CC[C@@H]1[C@]32OO4` [EX2], the IC50 stood at 23 nM.

`C[C@@H]1CC[C@H]2[C@@H](C)[C@](OCCS(=O)(=O)CCO[C@@]3(C(F)(F)F)O[C@@H]4O[C@]5(C)CC[C@H]6[C@H](C)CC[C@@H]([C@H]3C)[C@@]46OO5)(C(F)(F)F)O[C@@H]3O[C@@]4(C)CC[C@@H]1[C@]32OO4` [EX3, (3S,5aS,6R,8aS,9R,10R,12R,12aR,3′S,5′aS,6′R,8′aS,-9′R,10′R,12′R,12′aR)-10,10′-[sulfonylbis(2,1-ethanediyloxy)]bis[decahydro-3,6,9-trimethyl-10-tri-fluoromethyl)-3,12-epoxy-12H-pyrano[4,3-j]-1,2-benzodioxepine] yielded a half-maximal inhibitory concentration (IC50) of 21 nM.

`C[C@@H]1CC[C@H]2[C@@H](C)[C@](OCCN(C)CCO[C@@]3(C(F)(F)F)O[C@@H]4O[C@@]5(C)CC[C@H]6[C@H](C)CC[C@@H]([C@H]3C)[C@@]46OO5)(C(F)(F)F)O[C@@H]3O[C@@]4(C)CC[C@@H]1[C@]32OO4` [EX8, 2-[[(3R,5aS,6R,8aS,9R,10R,12R,12aR)-decahydro-3,6,9-trimethyl-10-(trifluoromethyl)-3,12-epoxy-12H-pyrano[4,3-j]-1,2-benzodioxepin-10-yl]oxy]-N-[2-[[(3R,5aS,6R,8aS,9R,10R,12R,12aR)-decahydro-3,6,9-trimethyl-10-(trifluoromethyl)-3,12-epoxy-12H-pyrano[4,3-j]-1,2-benzodioxepin-10-yl]oxy]ethyl]-N-methylethanamine] gave an IC50 of 30 nM. This IC50 and that of the molecule before are within 1.5-fold of each other.
